The record followed here is EP3099166B1, “METHOD TO CONTROL ST[…] SEPTORIA TRITICI” (priority 2014, dated 2015).

Where two headings read alike, the source gives them in different places.

The subject of assay [1] is Septoria tritici. Kind of assay: Glasshouse trial on wheat, curative (K4) application (Example 2). In kind it is in vivo. As to conditions: for % Efficacy: wheat, R12 isolates, G143A, 4 weeks after application. The method, then:
(§1) The trials were conducted under glasshouse conditions. Wheat was planted and grown under standard conditions with adequate supply of water and nutrients. At BBCH 11, an application of the test compounds was made. Fungicides were applied curatively 4 days after inoculation (K4) with different rates. The Septoria isolates used for inoculation were classified "R12" according their cyp51 haplotype (less sensitive to triazoles due to V136A, 1381V, Y461S/H and S524T mutation in cyp51 gene) and resistant to strobilurins due to G143A mutation in cytochrome b gene.
(§2) Disease levels were assessed by evaluating the average percentage of diseased leaf area 4 weeks after application.
(§3) The disease levels were converted into efficacies. An efficacy of 0 means that the level of the treated plants corresponds to that of the untreated control plants; an efficacy of 100 means that the treated plants had no disease at all.

The test system of assay [2] is Septoria tritici. Kind of assay: Glasshouse trial on wheat, preventive (P1) or curative (K4) application (Example 1). In kind it is in vivo. As to conditions: Zymoseptoria tritici. The method, then: as §1, with “applied preventively (1 day before inoculation, P1) or” for “applied”, “curatively (4” for “curatively 4”, “after inoculation, K4) and” for “after inoculation (K4)”, “V136A, I381V,” for “V136A, 1381V,”
as §2, §3

The mark [3] stands for this setting: Zymoseptoria tritici, 672 h, read-out: % Efficacy.

As to `CO/C=C(/C(=O)OC)c1ccccc1COc1cccc(C(F)(F)F)n1` [Picoxystrobin, picoxystrobin], the “% Efficacy” value in assay [1] (83 g a.i./ha, curative (K4, 4 days after inoculation)) was found to be 0%; in assay [1] (250 g a.i./ha, curative (K4)), 7%.

As to `CCCC1COC(Cn2cncn2)(c2ccc(Cl)cc2Cl)O1` (stereo not drawn) [Propiconazole, propiconazole], in assay [1] (setting [3]), the Emax at 33 g/ha came to 7% and the Emax at 125 g/ha came out at 20%. Further, the Percent disease control efficacy at 33 g/ha in assay [2] (672 h, read-out: % Efficacy, 33 g a.i./ha, curative (K4), R12 isolates, G143A, 4 weeks after application) worked out at 7%. In addition, the Percent disease control efficacy at 33 g/ha in assay [2] (672 h, read-out: % Efficacy, 33 g a.i./ha, preventative (P1), R12 isolates, G143A, 4 weeks after application) worked out at 10%. Besides, the Percent disease control efficacy at 125 g/ha in assay [2] (672 h, read-out: % Efficacy, 125 g a.i./ha, preventative (P1), R12 isolates, G143A, 4 weeks after application) came out at 40%.

For `OC(Cc1ccccc1Cl)(Cn1nc[nH]c1=S)C1(Cl)CC1` (stereo not drawn) [Prothioconazole, prothioconazole], the Emax at 67 g/ha in assay [1] (setting [3]) amounted to 7%. Also, the Percent disease control efficacy at 67 g/ha in assay [2] (672 h, read-out: % Efficacy, 67 g a.i./ha, curative (K4), R12 isolates, G143A, 4 weeks after application) was found to be 7%; in assay [2] (672 h, read-out: % Efficacy, 67 g a.i./ha, preventative (P1), R12 isolates, G143A, 4 weeks after application) it was 10%.

Regarding `COC(=O)N(OC)c1ccccc1COc1ccn(-c2ccc(Cl)cc2)n1` [Pyraclostrobin, pyraclostrobin], in assay [2] (672 h, read-out: % Efficacy, 250 g a.i./ha, preventative (P1), R12 isolates, G143A, 4 weeks after application), the Percent disease control efficacy at 250 g/ha was determined as 51%. For the same molecule, the Percent disease control efficacy at 83 g/ha in assay [2] (read-out: % Efficacy, 83 g a.i./ha, curative (K4, 4 days after inoculation), R12 isolates, G143A, assessed 4 weeks after application) is 10%.
